Measurements published in PubChem BioAssay AID1918937 (Molecular Pharmacology Branch, DTP, NCI, 2023).
pIC50: −log10 of the molar value. Several values for one entry are separate records, joined by “and”; a condition that tells them apart may be missing. Identical values can stand only once.

Test system: 521955-158-R2-J5-PDC complex spheroid viability
Test: Anticancer human tumor 521955-158-R2-J5-PDC patient-derived pancreatic carcinoma cell line growth inhibition
Settings: for viability, T/C: stronger effect = lower value
Outline: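 Complex spheroids of tumor cells with HUVEC and human MSCs, exposed to iadademstat combined with other agents. Each agent tested in half-log steps from near clinical Cmax (else 10 microM top), DMSO ≤0.25%.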

[1] = curve of first compound, second compound 0.1 µM
[2] = curve of first compound, second compound 0.316 µM
[3] = curve of first compound, second compound 1 µM
[4] = curve of first compound, second compound 3.16 µM
[5] = curve of first compound, second compound 10 µM
[6] = second compound 0.1 µM, first compound 0.00316 µM
[7] = second compound 0.1 µM, first compound 0.01 µM
[8] = second compound 0.1 µM, first compound 0.0316 µM
[9] = second compound 0.1 µM, first compound 0.1 µM
[10] = second compound 0.1 µM, first compound 0.316 µM
[11] = second compound 0.1 µM, first compound 1 µM
[12] = second compound 0.316 µM, first compound 0.00316 µM
[13] = second compound 0.316 µM, first compound 0.01 µM
[14] = second compound 0.316 µM, first compound 0.0316 µM
[15] = second compound 0.316 µM, first compound 0.1 µM
[16] = second compound 0.316 µM, first compound 0.316 µM
[17] = second compound 0.316 µM, first compound 1 µM
[18] = second compound 1 µM, first compound 0.00316 µM
[19] = second compound 1 µM, first compound 0.01 µM
[20] = second compound 1 µM, first compound 0.0316 µM
[21] = second compound 1 µM, first compound 0.1 µM
[22] = second compound 1 µM, first compound 0.316 µM
[23] = second compound 1 µM, first compound 1 µM
[24] = second compound 3.16 µM, first compound 0.00316 µM
[25] = second compound 3.16 µM, first compound 0.01 µM
[26] = second compound 3.16 µM, first compound 0.0316 µM
[27] = second compound 3.16 µM, first compound 0.1 µM
[28] = second compound 3.16 µM, first compound 0.316 µM
[29] = second compound 3.16 µM, first compound 1 µM
[30] = second compound 10 µM, first compound 0.00316 µM
[31] = second compound 10 µM, first compound 0.01 µM
[32] = second compound 10 µM, first compound 0.0316 µM
[33] = second compound 10 µM, first compound 0.1 µM
[34] = second compound 10 µM, first compound 0.316 µM
[35] = second compound 10 µM, first compound 1 µM
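Also: spheroids exposed to agents for seven days.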
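For viability, T/C in this document: percent of DMSO vehicle control luminescence viability.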

Structure (SMILES) | pIC50 [1] | pIC50 [2] | pIC50 [3] | pIC50 [4] | pIC50 [5] | viability, T/C [6] | viability, T/C [7] | viability, T/C [8] | viability, T/C [9] | viability, T/C [10] | viability, T/C [11] | viability, T/C [12] | viability, T/C [13] | viability, T/C [14] | viability, T/C [15] | viability, T/C [16] | viability, T/C [17] | viability, T/C [18] | viability, T/C [19] | viability, T/C [20] | other results
O=C(C=Cn1cnc(-c2cc(C(F)(F)F)cc(C(F)(F)F)c2)n1)NNc1cnccn1 + NC1CC1c1ccc(-c2cccc(O)c2)cc1 | 6.66 | 6.69 | 6.77 | 7.12 | 7.75 | 81.3% | 75% | 85.6% | 65.6% | 42.5% | 23.1% | 69.8% | 79.1% | 78.5% | 78% | 34.2% | 22.7% | 65.1% | 66.5% | 79.3% | viability, T/C [21]: 53.6%; viability, T/C [22]: 40.5%; viability, T/C [23]: 19.4%; viability, T/C [24]: 67.2%; viability, T/C [25]: 61.2%; viability, T/C [26]: 52.2%; viability, T/C [27]: 50.4%; viability, T/C [28]: 36.9%; viability, T/C [29]: 17.5%; viability, T/C [30]: 56.6%; viability, T/C [31]: 56.9%; viability, T/C [32]: 43.6%; viability, T/C [33]: 36.5%; viability, T/C [34]: 24.7%; viability, T/C [35]: 16.8%
O=C(C=Cn1cnc(-c2cc(C(F)(F)F)cc(C(F)(F)F)c2)n1)NNc1cnccn1 + NC1CCC(NC2CC2c2ccccc2)CC1 | > 8.50 | > 8.50 | > 8.50 | > 8.50 | > 8.50 | 40.4% | 42% | 45.4% | 35.8% | 19% | 14.7% | 40.8% | 33.4% | 52.3% | 40.6% | 21.5% | 16.1% | 37.7% | 31.5% | 52.4% | viability, T/C [21]: 38.4%; viability, T/C [22]: 26.8%; viability, T/C [23]: 17.2%; viability, T/C [24]: 40.2%; viability, T/C [25]: 41.1%; viability, T/C [26]: 36.1%; viability, T/C [27]: 41.5%; viability, T/C [28]: 21.6%; viability, T/C [29]: 17.1%; viability, T/C [30]: 32.2%; viability, T/C [31]: 29.3%; viability, T/C [32]: 35.3%; viability, T/C [33]: 29%; viability, T/C [34]: 24.1%; viability, T/C [35]: 13.3%
CCN(c1cc(-c2ccc(CN3CCOCC3)cc2)cc(C(=O)NCc2c(C)cc(C)[nH]c2=O)c1C)C1CCOCC1 | – | – | – | – | – | – | – | – | – | – | – | – | – | – | – | – | – | – | – | – | viability, T/C (compound 0.00949 µM): 102% and 106%; viability, T/C (compound 0.03 µM): 100% and 106%; viability, T/C (compound 0.0949 µM): 98.5% and 102%; viability, T/C (compound 0.3 µM): 83.5% and 102%; viability, T/C (compound 0.949 µM): 73.1% and 87.9%; viability, T/C (compound 3 µM): 46.6% and 75%; pIC50 (curve of compound): 5.59 and < 5.52
